# In patent US20230364130A1, “INHALED ARGON FOR TREATING A PATIENT SUFFERING FROM CARDIOVASCULAR DISEASE” (L'Air Liquide, Sociëtë Anonyme Pour l'Etude et …, priority 2020, published 2023):
# Experiments:
# rabbits [1] = test: histology score of organs after supraceliac aortic clamping and reperfusion; assay type: in vivo, rabbit (male, New Zealand breed)
# Protocol: (§1) More specifically, the model used is a lagomorphic model of multiple organ failure by clamping the supraceliac aorta.
# (§2) After a period of hemodynamic stabilization, the supraceliac aorta is clamped with an atraumatic clamp for 30 minutes. In order to avoid any thrombus formation at the level of the clamping, a bolus of unfractionated heparin (250 IU/kg) is administered to the rabbit in question, 5 minutes before clamping.
# (§3) The rabbits are separated into 2 groups: • a Control Group (CG) inhaling an N2/O2 binary gas mixture containing 30% of oxygen and the rest as nitrogen (vol %); • an Argon Group (AG) according to the invention inhaling an Ar/O2 binary gas mixture containing 30% of oxygen and the rest as argon (vol %), i.e. 70 vol % of argon.
# FIG. 3 represents the histology score of several organs: heart, liver, lungs, kidneys and jejunum (i.e. intestines).
# rabbits [2] = test: additional preliminary study: suprarenal then supraceliac aortic clamping, calculated pulmonary vascular resistance; assay type: in vivo, rabbit; details: argon 70 vol % / oxygen 30 vol %, during suprarenal then supraceliac aortic clamping
# Protocol: A first clamping of the aorta of these rabbits was performed above the renal artery, followed by clamping at the supraceliac level. The objective is to see the effect of argon during a gradual modification of systemic resistance.
# rabbits [3] = test: model of multiple organ failure by clamping the supraceliac aorta (30 min) then reperfusion; hemodynamics and acid-base parameters; assay type: in vivo, rabbit (male, New Zealand breed)
# Protocol: as §1
# The rabbits were sedated by intravenous injection (Zoletil® 15 mg/kg), then intubated to be ventilated. Anesthesia is completed by intravenous administration of thiopental (10 mg/kg) and methadone hydrochloride (Comfortan® 0.6 mg/kg); and maintained as needed with thiopental boluses.
# as §2
# The effectiveness of the clamping is verified by the absence of an aortic pulse downstream of the clamping. Similarly, the absence of thrombus is assessed by the presence of an aortic pulse after unclamping.
# as §3
# The cardiac output is measured by a cardiac output valve before, during and after ischemia (Isch.) of the aorta.
# [4] = after 300 minutes of reperfusion
structure (smiles),measurement,setting,value
[Ar] [argon],jejunal lesions vs Control Group,"rabbits [1]; jejunum, histology",no difference
same,tubular necrosis lesions vs Control Group,"rabbits [1]; kidneys, histology",significantly greater in the Control Group than in the Argon Group
same,"histology score, centrilobular clarification vs Control Group",rabbits [1]; liver,significantly lower
same,congestive and edematous lesions of the lung parenchyma vs Control Group,"rabbits [1]; lungs, histology",the difference was not significant
same,subendocardial necrosis lesions vs Control Group,"rabbits [1]; myocardium, histology",no significant difference
same,pulmonary vascular resistance vs animals exposed to oxygen-enriched air,rabbits [2],immediately reduced
same,"pH, HCO3- and lactate parameters vs Control Group",rabbits [3]; acid-base biochemical parameters,significantly preserved within normal values
same,norepinephrine dose required to maintain a stable arterial pressure,rabbits [3]; after 15 minutes of reperfusion,1.4 ± 0.6 µg/kg/min
same,cardiac output,"rabbits [3]; after 30 minutes of gas inhalation, before clamping",99 ± 10 mL/min/kg
same,cardiac output,rabbits [3]; [4],60 ± 4 mL/min/kg
same,pH,rabbits [3]; [4],7.16
same,cardiac output vs Control Group,"rabbits [3]; after unclamping, up to 240 minutes of reperfusion",no significant difference between the groups
same,norepinephrine dose required to maintain a stable arterial pressure,rabbits [3]; at the end of the 300-minute monitoring,3.3 ± 1.6 µg/kg/min
same,cardiac output,"rabbits [3]; at the start of the experiment, inhaled Ar/O2 70/30 vol %",108 ± 7 mL/min/kg
same,mean arterial pressure,rabbits [3]; during the ischemia phase following clamping,130±7 mmHg
same,mean arterial pressure vs Control Group,"rabbits [3]; during the reperfusion phase, after unclamping",no significant difference between the groups
same,attenuated decrease of cardiac output vs Control Group,"rabbits [3]; immediately after beginning of surgery, upon clamping",approximately 20%
same,norepinephrine doses to maintain mean arterial pressure vs Control Group,rabbits [3]; throughout reperfusion,significantly lower
same,heart rate vs Control Group,rabbits [3]; throughout the protocol,no significant difference between the groups
